Test results from US20050222146A1, “N-substituted-n-sulfonylaminocyclopropane compounds and pharmaceutical use thereof” (priority 2003, published 2005).

Experiments:
Format in all cases: biochemical
MMP-1 = molecular target: T1, MMP-1 (Homo sapiens, UniProt P03956); assay: MMP-1 inhibitory action, Type I collagen Activity Measurement kit (FITC-labeled collagen type I); conditions: 37° C. for 3 hr, read-out: Experimental Example 2 IC50 MMP1
T1 sequence (P03956 100-469): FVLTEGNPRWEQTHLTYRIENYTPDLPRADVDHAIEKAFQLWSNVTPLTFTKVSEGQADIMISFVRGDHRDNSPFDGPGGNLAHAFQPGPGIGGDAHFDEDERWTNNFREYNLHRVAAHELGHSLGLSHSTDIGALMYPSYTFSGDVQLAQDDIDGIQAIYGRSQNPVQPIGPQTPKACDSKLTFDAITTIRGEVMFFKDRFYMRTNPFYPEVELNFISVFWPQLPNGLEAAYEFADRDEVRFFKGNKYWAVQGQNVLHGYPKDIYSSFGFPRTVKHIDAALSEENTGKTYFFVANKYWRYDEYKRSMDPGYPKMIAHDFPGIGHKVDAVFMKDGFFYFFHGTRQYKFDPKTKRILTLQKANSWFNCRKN

Recombinant Human MMP-13 = molecular target: T2, Recombinant Human MMP-13 (Homo sapiens, UniProt P45452); assay: MMP-13 inhibition, MMP-13 specific fluorescent substrate with quencher; conditions: synthetic substrate 7-MCA-Pro-CHA-Gly-NVal-His-Ala-DPA, 25° C. for 1 h; read-out: Experimental Example 3 IC50 MMP13
T2 construct: purchased R&D systems 511-MM
Procedure: Inhibitory activity of tested compounds on MMP-13 was measured using MMP-13 specific fluorescent substrate with quencher.
The enzyme and substrate were diluted with Tris-HCl buffer, and test compounds were diluted with dimethyl sulfoxide (DMSO).
Test compounds and the enzyme (Recombinant Human MMP-13: R&D systems, 511-MM) were added into 96-well plate. The reaction was initiated by adding synthetic substrate (7-MCA-Pro-CHA-Gly-NVal-His-Ala-DPA: enzyme systems products, Met-06) into the plate. After incubation at 25° C. for 1 h, the reaction was terminated by addition of reaction terminating solution containing acetic acid. Fluorescence intensity of each well was measured (Ex: 325 nm, Em: 405 nm) and the MMP-13 inhibitory activity of the compound in each well (%) was calculated based on the values of enzyme-free well and inhibitor-free well. The inhibitory activity of the compound was represented as IC50 (μM).

aggrecanase-1 = molecular target: T3, aggrecanase-1 (Homo sapiens, UniProt O75173); assay: Aggrecanase-1 inhibitory action, Particle Assay (GAG release from aggrecan-containing polyacrylamide particles); conditions: 37° C. for 15 hr, read-out: Experimental Example 1 IC50 AG1
T3 sequence (O75173 213-837): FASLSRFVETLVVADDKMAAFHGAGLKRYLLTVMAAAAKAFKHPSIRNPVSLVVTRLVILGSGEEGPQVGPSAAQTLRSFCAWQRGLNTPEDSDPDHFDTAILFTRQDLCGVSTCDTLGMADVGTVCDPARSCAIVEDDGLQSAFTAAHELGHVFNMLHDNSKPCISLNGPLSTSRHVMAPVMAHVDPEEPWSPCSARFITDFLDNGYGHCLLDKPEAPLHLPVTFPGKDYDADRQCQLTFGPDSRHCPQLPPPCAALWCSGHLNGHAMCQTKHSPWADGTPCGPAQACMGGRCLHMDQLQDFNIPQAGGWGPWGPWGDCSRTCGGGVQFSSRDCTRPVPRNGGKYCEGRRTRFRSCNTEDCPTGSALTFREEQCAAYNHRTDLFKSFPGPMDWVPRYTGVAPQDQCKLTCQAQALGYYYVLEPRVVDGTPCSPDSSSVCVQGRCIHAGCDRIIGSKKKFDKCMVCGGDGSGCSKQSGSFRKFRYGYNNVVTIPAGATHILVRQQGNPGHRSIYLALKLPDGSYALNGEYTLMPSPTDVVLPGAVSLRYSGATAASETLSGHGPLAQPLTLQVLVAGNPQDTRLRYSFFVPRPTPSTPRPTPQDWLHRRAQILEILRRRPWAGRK
How it was run: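 IC50 (μM) derived from % inhibition, referenced to enzyme-free and inhibitor-free wells, of GAG release read as 1,9-dimethylmethylene blue absorbance at 595 nm (chondroitin sulfate standard). Substrate: aggrecan-bearing polyacrylamide particles, exposed to enzyme plus compound in Tris-HCl for 15 hr at 37 °C.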

Row | Structure (SMILES) | IC50 (MMP-1) [µM] | IC50 (Recombinant Human MMP-13) [µM] | IC50 (aggrecanase-1) [µM]
1 | O=C(O)[C@@]12C[C@@]1(c1ccccc1)COCN2S(=O)(=O)c1ccc(-c2ccc(Cl)cc2)s1 (relative stereo) [Example 2-01, (1R*,6S*)-2-[5-(4-chlorophenyl)-thiophene-2-sulfonyl]-6-phenyl-4-oxa-2-aza-bicyclo[4.1.0]heptane-1-carboxylic acid] | ≥ 10 | ≥ 1 | ≥ 1
2 | O=C(O)c1cnn(CCN([C@]2(C(=O)O)C[C@H]2c2ccccc2)S(=O)(=O)N2CCN(c3ccc(C(F)(F)F)cc3)CC2)c1 (relative stereo) [Example 2-05, 1-(2-{((1R*,2S*)-1-Carboxy-2-phenyl-cyclopropyl)-[4-(4-trifluoromethyl-phenyl)-piperazine-1-sulfonyl]-amino}-ethyl)-1H-pyrazole-4-carboxylic acid] | ≥ 10 | ≥ 1 | < 1
3 | O=C(O)[C@@]12C[C@]1(c1ccccc1)CCCN2S(=O)(=O)c1ccc(-c2ccc(Cl)cc2)s1 (relative stereo) [Example 2-13, (1R*,6S*)-2-[5-(4-Chloro-phenyl)-thiophene-2-sulfonyl]-6-phenyl-2-aza-bicyclo[4.1.0]heptane-1-carboxylic acid] | ≥ 10 | ≥ 1 | < 1
4 | O=C(O)[C@@]12C[C@]1(c1ccccc1)CCCN2S(=O)(=O)c1ccc(-c2cc(C(F)(F)F)on2)s1 (relative stereo) [Example 2-22, (1R*,6S*)-6-Phenyl-2-[5-(5-trifluoromethyl-isoxazol-3-yl)-thiophene-2-sulfonyl]-2-aza-bicyclo[4.1.0]heptane-1-carboxylic acid] | ≥ 10 | ≥ 1 | ≥ 1
5 | O=C(O)[C@@]12C[C@]1(c1ccccc1)CCN2S(=O)(=O)c1ccc(-c2ccc(Cl)cc2)s1 (relative stereo) [Example 2-23, (1R*,5S*)-2-[5-(4-Chloro-phenyl)-thiophene-2-sulfonyl]-5-phenyl-2-aza-bicyclo[3.1.0]hexane-1-carboxylic acid] | ≥ 10 | ≥ 1 | ≥ 1
6 | O=C(O)[C@@]12C[C@]1(c1ccccc1)COC(CO)CN2S(=O)(=O)c1ccc(-c2ccc(Cl)cc2)s1 (relative stereo) [Example 2-26, (1R*,7R*)-2-[5-(4-Chloro-phenyl)-thiophene-2-sulfonyl]-4-hydroxymethyl-7-phenyl-5-oxa-2-aza-bicyclo[5.1.0]octane-1-carboxylic acid] | ≥ 10 | ≥ 1 | ≥ 1
7 | O=C(O)c1cn(CCN(C2(C(=O)O)CC2c2ccccc2)S(=O)(=O)c2ccc(-c3ccc(Cl)cc3)cc2)cn1 (stereo not drawn) [Example 1-104, 1-{2-[(1R*,2S*)-1-carboxy-2-phenyl-cyclopropyl)-(4′-chloro-biphenyl-4-sulfonyl)-amino]-ethyl}-1H-imidazole-4-carboxylic acid] | ≥ 10 |  | < 0.1
8 | CN([C@@]1(C(=O)O)C[C@@H]1c1ccccc1)S(=O)(=O)c1ccc(-c2ccc(Cl)cc2)s1 [Example 2-03, (1S,2R)-1-{[5-(4-Chloro-phenyl)-thiophene-2-sulfonyl]-methyl-amino}-2-phenyl-cyclopropanecarboxylic acid] | ≥ 10 | ≥ 10 | ≥ 1
9 | O=C(O)C1(N(CCO)S(=O)(=O)c2ccc(-c3ccc(Cl)cc3)s2)CC1c1ccccc1 (stereo not drawn) [Example 2-04, (1R*,2S*)-1-[[5-(4-Chloro-phenyl)-thiophene-2-sulfonyl]-(2)-hydroxy-ethyl)-amino]-2-phenyl-cyclopropanecarboxylic acid] | ≥ 10 | ≥ 1 | ≥ 1

Other lines, results leading:

Row | IC50 (MMP-1) [µM] | IC50 (Recombinant Human MMP-13) [µM] | IC50 (aggrecanase-1) [µM] | Structure (SMILES)
10 | ≥ 10 | ≥ 10 | ≥ 1 | Nc1nnn(CCN([C@]2(C(=O)O)C[C@H]2c2ccccc2)S(=O)(=O)N2CCN(c3ccc(C(F)(F)F)cc3)CC2)n1 (relative stereo) [Example 2-06, (1R*,2S*)-1-{[2-(5-Amino-tetrazol-2-yl)-ethyl]-[4-(4-trifluoromethyl-phenyl)-piperazine-1-sulfonyl]-amino}-2-phenyl-cyclopropanecarboxylic acid]
11 | ≥ 10 | ≥ 10 | ≥ 1 | Nc1nnnn1CCN([C@]1(C(=O)O)C[C@H]1c1ccccc1)S(=O)(=O)N1CCN(c2ccc(C(F)(F)F)cc2)CC1 (relative stereo) [Example 2-07, (1R*,2S*)-1-{[2-(5-Amino-tetrazol-1-yl)-ethyl]-[4-(4-trifluoromethyl-phenyl)-piperazine-1-sulfonyl]-amino}-2-phenyl-cyclopropanecarboxylic acid]
12 | ≥ 10 | ≥ 10 | ≥ 1 | CN([C@]1(C(=O)O)C[C@@]1(CN1CCOCC1)c1ccccc1)S(=O)(=O)c1ccc(-c2cc(C(F)(F)F)on2)s1 (relative stereo) [Example 2-24, (1R*,2S*)-1-{Methyl-[5-(5-trifluoromethyl-isoxazol-3-yl)-thiophene-2-sulfonyl]-amino}-2-morpholin-4-ylmethyl-2-phenyl-cyclopropanecarboxylic acid]
13 | ≥ 10 | ≥ 10 | < 0.1 | O=C(O)CN([C@]1(C(=O)O)C[C@H]1c1ccccc1)S(=O)(=O)c1ccc(-c2ccc(Cl)cc2)s1 [Example 2-08, (1R,2S)-1-{Carboxymethyl-[5-(4-chloro-phenyl)-thiophene-2-sulfonyl]-amino}-2-phenyl-cyclopropanecarboxylic acid]
14 | ≥ 10 | ≥ 1 | < 0.1 | O=C(O)CN([C@]1(C(=O)O)C[C@H]1c1ccccc1)S(=O)(=O)c1ccc(-c2cc(C(F)(F)F)on2)s1 [Example 2-09, (1R,2S)-1-{Carboxymethyl-[5-(5-trifluoromethyl-isoxazol-3-yl)-thiophene-2-sulfonyl]-amino}-2-phenyl-cyclopropanecarboxylic acid]
15 | ≥ 10 | ≥ 10 | < 1 | O=C(O)CN([C@@]1(C(=O)O)C[C@@H]1c1ccccc1)S(=O)(=O)c1ccc(-c2ccc(Cl)cc2)s1 [Example 2-10, (1S,2R)-1-{Carboxymethyl-[5-(4-chloro-phenyl)-thiophene-2-sulfonyl]-amino}-2-phenyl-cyclopropanecarboxylic acid]
16 | ≥ 10 | ≥ 10 | ≥ 1 | CN1CCN(C(=O)CN([C@@]2(C(=O)O)C[C@@H]2c2ccccc2)S(=O)(=O)c2ccc(-c3ccc(Cl)cc3)s2)CC1 [Example 2-11, (1S,2R)-1-{[5-(4-Chloro-phenyl)-thiophene-2-sulfonyl]-[2-(4-methyl-piperazin-1-yl)-2-oxo-ethyl]-amino}-2-phenyl-cyclopropanecarboxylic acid]
17 | ≥ 10 | ≥ 1 | ≥ 1 | CN([C@]1(C(=O)O)C[C@H]1c1ccccc1)S(=O)(=O)c1ccc(-c2ccc(Cl)cc2)s1 [Example 2-12, (1R,2S)-1-{[5-(4-Chloro-phenyl)-thiophene-2-sulfonyl]-methyl-amino}-2-phenyl-cyclopropanecarboxylic acid]
18 | ≥ 10 |  | ≥ 1 | O=C(O)[C@@]1(N(CCN2CCOCC2)S(=O)(=O)c2ccc(-c3ccc(Cl)cc3)s2)C[C@H]1c1ccccc1 [Example 2-14, (1R,2S)-1-[[5-(4-Chloro-phenyl)-thiophene-2-sulfonyl]-(2-morpholin-4-yl-ethyl)-amino]-2-phenyl-cyclopropanecarboxylic acid]
